Data taken from patent publication US10308938B2, “Compositions and methods to activate or inhibit toll-like receptor signaling” (priority 2014, dated 2019).
“Also recorded” adds a separate entry of the source.

Experiments:
CD14^+ monocytes = assay: Activation of CD14+ monocytes (surface staining, cytokine ELISA); type: cell-based, human
Description: (§1) Cell isolation and FACS sorting of T cell populations. Peripheral blood mononuclear cells (PBMC) were isolated from healthy donors by Ficoll Hypaque gradient centrifugation. Total CD4^+ T cells were isolated by negative selection using CD4^+ T cell isolation kit (StemCell Technologies, Vancouver, BC) and stained for fluorescence-activated cell sorting (FACS) with the following antibodies: anti-CD45RO (clone UCHL1), CD45RA (clone H1100), CD25 (clone M-A251) (all from BD Biosciences) and CD127 (clone eBioRDR5) from eBioscience (San Diego, Calif.). The Treg (CD4^+CD25^hiCD127^low/neg) memory T cell (CD4^+CD45RA^−CD45RO^+CD25^low/neg+) and naïve T cell (CD4^+CD45RA^+CD45RO^−CD25^low/neg) populations were sorted on a FACS Aria (BD Biosciences). Unless specified, CD4^+ T cells used in the experiments were Treg-depleted CD4^+ T cells and they were sorted as CD4^+CD25^pos/lowCD127^+. The purity of the sorted CD4^+ T cell population was >98% as assessed by CD3 and CD4 staining after sort. CD14^+ cells were isolated by positive selection using EasySep™ Human CD14 Positive Selection Kit (StemCell Technologies).
(§2) Cell activation and intracellular staining.
(§3) Enzyme-linked immunosorbent assay.

CD4^+ T cells [1] = assay: shRNA-transduced CD4+ T cells stimulated in the presence or absence of IMQ; type: cell-based, human
Description: as §3
Quantification of mRNA expression levels by RT-PCR. RNA was isolated using QIAGEN RNeasy Micro Plus Kit (QIAGEN, Valencia, Calif.), following manufacturer's guidelines and converted to cDNA by reverse transcription (RT) with random hexamers and Multiscribe RT (TQMN, Reverse Transcription Reagents; Applied Biosystems, Foster City, Calif.). For mRNA gene expression assays, probes were purchased from Applied Biosystems (Table 2) and the reactions were set up following manufacturer's guidelines and run on a StepOne Real-Time PCR System (Applied Biosystems). Values are represented as the difference in Ct values normalized to β2-microglobulin for each sample as per the following formula: Relative RNA expression=(2^−dCt)×1000.
Gene silencing by lentiviral transduction. Lentiviral particles encoding shRNAs were obtained from Sigma-Aldrich (NFAT1 clone TRCN0000016144, TLR7 clones 3 and 4 TRCN0000056973 and TRCN0000056974, respectively). 5×10^4 CD4^+ T cells per well were stimulated with plate-bound anti-CD3 (1 μg/ml) and soluble anti-CD28 (1 μg/ml) for 12 h before transduction. Cells were then transduced with viral particles containing a vector expressing the indicated specific shRNA (NFAT1 or TLR7) or a non-target shRNA as a control at a multiplicity of infection of 4. All constructions contained the coding sequence for GFP. After 5 days in culture, transduced cells were sorted based on GFP expression and the efficiency of gene silencing was determined by TaqMan real-time PCR and protein staining.

CD4^+ T cells [2] = assay: Proliferation of CFSE-labeled CD4+ T cells stimulated with anti-CD3 and anti-CD28 in the presence of TLR ligands; type: cell-based, human; conditions: compared to control
Description: as §1, §2
While examining the costimulatory role of TLR on CD4^+ T cells, it was unexpectedly discovered that entry of CD4^+ cells into cell cycle with T cell receptor cross-linking and anti-CD28 was blocked by TLR7 engagement. Specifically, CD4^+ T cells were stimulated with anti-CD3 and anti-CD28 in the presence of different TLR agonists followed by analysis of proliferation and cytokine secretion.

CD4^+ T cells [3] = assay: Cytokine secretion by stimulated CD4+ T cells, ELISA; type: cell-based, human; conditions: day 3 after stimulation
Description: as §2, §3

CD4^+ T cells [4] = assay: Expression of activation markers on stimulated CD4+ T cells; type: cell-based, human; conditions: 48 hours after activation
Description: as §2

HIV-1NL-D = assay: HIV-1 in vitro infection of CD4+ T cells; type: cell-based; conditions: treatment before infection, MOI 0.001
Experimental: Preparation of HIV-1 virus stocks. HIV-1 proviral DsRed-tagged DNA pNL-D (derived from the prototype HIV-1 proviral DNA pNL432) was kindly provided by Dr. Yasuko Tsunetsugu-Yokota. 293T cells were used to prepare viral stocks following published protocols with minor modifications. In brief, 293T cells were plated at 0.5×10^6/well in 12-well plates and transfected with 2 μg pNL-D using Lipofectamine 2000 (Invitrogen) for 48 hours. Culture supernatant was treated with benzonase (1U/ml) for 30 minutes at 37 C, cleared by filtration and titrated on 293T cells. Stocks were stored at −80 C.
HIV-1 in vitro infection. CD4^+ T cells were stimulated with anti-CD3 (1 μg/ml) and anti-CD28 (1 μg/ml) for 48 hours and subsequently infected with HIV-1 at a MOI of 0.001 (concentration within the physiological range). Viability and cytokine secretion was measured every 48 hours for a total of 11 days after infection.
For HIV-1 infection on TLR7-deficient cells, CD4^+ T cells were stimulated as above and transduced with the corresponding lentiviral particles. 48 hours after transduction, the cells were infected with HIV-1NL-D at a MOI of 0.001. Viability and frequency of HIV-1-infected cells were measured at different time points by LIVE/DEAD cell dye staining and fixation with 1% PFA (to avoid DsRed signal loss). For intracellular staining after infection, the cells were restimulated with PMA and Ionomycin in the presence of GolgiStop for 4 hours and the staining was performed as recommended by Grupillo et al.

[5] = NFAT shRNA-transduced cells, 3 days
[6] = TLR7 shRNA-transduced cells, 3 days
[7] = non-target shRNA-transduced cells, 3 days, listed as IMQ

Question: Which results are given for CC(C)Cn1cnc2c(N)nc3ccccc3c21 [Imiquimod]?
Answer: CD25 protein expression (CD14^+ monocytes; 5 μg/ml IMQ, 24 hours): upregulation; CD80 protein expression (CD14^+ monocytes; 5 μg/ml IMQ, 24 hours): upregulation; CD86 protein expression (CD14^+ monocytes; 5 μg/ml IMQ, 24 hours): downregulation; HLA-DR protein expression (CD14^+ monocytes; 5 μg/ml IMQ, 24 hours): upregulation; IL-6 secretion (CD14^+ monocytes; ELISA): secreted significant levels; IL-10 secretion (CD14^+ monocytes; ELISA): decreased; IL-113 secretion (CD14^+ monocytes; ELISA): secreted significant levels; TNFα secretion (CD14^+ monocytes; ELISA): secreted significant levels; NFAT1 gene expression (CD4^+ T cells [1]; 24 hours after stimulation): did not have an effect; IFNγ production (CD4^+ T cells [1]; [5]): not affected; IL-2 production (CD4^+ T cells [1]; [5]): not affected; IMQ-induced decrease of IFNγ secretion (CD4^+ T cells [1]; [6]): abolished; IMQ-induced decrease of IL-2 secretion (CD4^+ T cells [1]; [6]): abolished; IFNγ secretion (CD4^+ T cells [1]; [7]): decrease; also recorded: significantly reduced; IL-2 secretion (CD4^+ T cells [1]; [7]): decrease; also recorded: significantly reduced; proliferation of CD4+ T cells (frequency of proliferating cells) (CD4^+ T cells [2]): dramatically reduced; IFNγ secretion (CD4^+ T cells [3]): dramatically reduced; IL-2 secretion (CD4^+ T cells [3]): decrease; IL-4 secretion (CD4^+ T cells [3]): decrease; IL-17 secretion (CD4^+ T cells [3]): dramatically reduced; IFNγ secretion (CD4^+ T cells [3]; listed as IMQ): decrease; IL-17 secretion (CD4^+ T cells [3]; listed as IMQ): decrease; expression of activation marker CD25 (CD4^+ T cells [4]): inhibited; expression of activation marker CD69 (CD4^+ T cells [4]; listed as IMQ): inhibited; also recorded: decrease; expression of activation marker CD137 (CD4^+ T cells [4]; listed as IMQ): inhibited; also recorded: decrease; frequency of HIV-1-infected CD4+ T cells (HIV-1NL-D): directly correlated with the concentration of IMQ used
